Literature values, collected in patent publication EP4578441A1, “TREATMENT OF LOCALIZED PAIN” (PlantTec Medical GmbH, priority 2023, dated 2025).
Where two headings read alike, the source gives them in different places.

Experiments:
[1] = free base
volunteers = conditions: i.v. infusions

Row | water solubility [1] | Compound | CNS toxicity threshold, free plasma ropivacaine concentration (volunteers; free plasma concentration) [µg/mL] | CNS toxicity threshold, free plasma ropivacaine concentration, maximum (volunteers; maximum) [µg/mL] | CNS toxicity threshold, free plasma ropivacaine concentration, minimum (volunteers; minimum) [µg/mL] | safety of local administration (dose of 400 mg) | safety of local administration (dose of 800 mg)
1 | weak | CCCN1CCCC[C@H]1C(=O)Nc1c(C)cccc1C [ropivacaine free base, (S)-1-Propyl-2',6'-dimethyl-2-piperidylcarboxyanilide] |  |  |  |  | 
2 |  | CCCN1CCCC[C@H]1C(=O)Nc1c(C)cccc1C [ropivacaine, (S)-1-Propyl-2',6'-dimethyl-2-piperidylcarboxyanilide] | 0.60 | 0.85 | 0.34 | safe | safe
